Measured values reported in PubChem BioAssay (NCI).
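In this assay, cells in 96-well plates receive the compound at five concentrations for 48 hours. Endpoints are linearly interpolated between the surrounding concentrations. GI50 marks 50% less growth. TGI: total growth inhibition.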

Legend:
Experiment in all cases: DTP human tumour cell line panel, 48 h
786-0 renal = system: 786-0 renal
A498 renal = system: A498 renal
A549 NSCLC = system: A549 NSCLC
ACHN renal = system: ACHN renal
BT-549 breast = system: BT-549 breast
CAKI-1 renal = system: CAKI-1 renal
CCRF-CEM leukemia = system: CCRF-CEM leukemia
COLO 205 colon = system: COLO 205 colon
DU-145 prostate = system: DU-145 prostate
HCC-2998 colon = system: HCC-2998 colon
HCT-116 colon = system: HCT-116 colon
HCT-15 colon = system: HCT-15 colon
HL-60(TB) leukemia = system: HL-60(TB) leukemia
HOP-92 NSCLC = system: HOP-92 NSCLC
HS 578T breast = system: HS 578T breast
KM12 colon = system: KM12 colon
LOX IMVI melanoma = system: LOX IMVI melanoma
M14 melanoma = system: M14 melanoma
MALME-3M melanoma = system: MALME-3M melanoma
MDA-MB-435 = system: MDA-MB-435
MOLT-4 leukemia = system: MOLT-4 leukemia
NCI-H226 lung = system: NCI-H226 lung
NCI-H522 lung = system: NCI-H522 lung

With `CC(=O)OCC1O[C@@H]([S-])C(OC(C)=O)[C@H](OC(C)=O)[C@@H]1OC(C)=O.[Au+].c1ccc(CN2[CH-]N(Cc3ccccc3)C(c3ccccc3)=C2c2ccccc2)cc1` the GI50 (786-0 renal) was 1.69 µM, the TGI (786-0 renal) was 3.39 µM and the GI50 (A498 renal) was 2.06 µM. The TGI (A498 renal) was 4.02 µM, the GI50 (A549 NSCLC) was 3.81 µM and the TGI (A549 NSCLC) was 21.4 µM. For the same molecule, the GI50 (ACHN renal) was 1.82 µM, the TGI (ACHN renal) was 3.51 µM and the GI50 (BT-549 breast) was 1.86 µM. For the same molecule, the TGI (BT-549 breast) was 3.54 µM, the GI50 (CAKI-1 renal) was 2 µM and the TGI (CAKI-1 renal) was 3.95 µM. The GI50 (CCRF-CEM leukemia) was 1.99 µM, the TGI (CCRF-CEM leukemia) was 5.51 µM and the GI50 (COLO 205 colon) was 1.99 µM. The TGI (COLO 205 colon) was 3.75 µM, the GI50 (DU-145 prostate) was 1.89 µM and the TGI (DU-145 prostate) was 3.54 µM. It also gave a GI50 (HCC-2998 colon) of 1.96 µM, a TGI (HCC-2998 colon) of 3.66 µM and a GI50 (HCT-116 colon) of 1.64 µM. It also gave a TGI (HCT-116 colon) of 3.24 µM, a GI50 (HCT-15 colon) of 1.47 µM and a TGI (HCT-15 colon) of 2.94 µM. For the same molecule, the GI50 (HL-60(TB) leukemia) was 2.24 µM, the TGI (HL-60(TB) leukemia) was 6.12 µM and the GI50 (HOP-92 NSCLC) was 1.74 µM. It also gave a TGI (HOP-92 NSCLC) of 3.38 µM, a GI50 (HS 578T breast) of 2.51 µM and a TGI (HS 578T breast) of 6.91 µM. The GI50 (KM12 colon) was 2.09 µM, the TGI (KM12 colon) was 4.27 µM and the GI50 (LOX IMVI melanoma) was 1.9 µM. It also gave a TGI (LOX IMVI melanoma) of 3.86 µM, a GI50 (M14 melanoma) of 1.69 µM and a TGI (M14 melanoma) of 3.58 µM. For the same molecule, the GI50 (MALME-3M melanoma) was 1.77 µM, the TGI (MALME-3M melanoma) was 4.06 µM and the GI50 (MDA-MB-435) was 1.66 µM. It also gave a TGI (MDA-MB-435) of 3.1 µM, a GI50 (MOLT-4 leukemia) of 3.06 µM and a TGI (MOLT-4 leukemia) of 9.47 µM. For the same molecule, the GI50 (NCI-H226 lung) was 3 µM, the TGI (NCI-H226 lung) was 9.04 µM and the GI50 (NCI-H522 lung) was 1.58 µM.
